Source: patent publication US7033765B1, “Site-specific drug delivery” (Toronto Research Chemicals, Inc., priority 1997, dated 2006)

Assays:
Na+ channel proteins = assay: Whole-cell Na+ current recordings with site-specific agents (channel type not stated); type: cell-based; details: for slow component of recovery from inactivation in modified channels: FIG. 8B
Protocol: (§1) For oocyte recordings, whole-cell currents were recorded at room temperature (approximately 23° C.) using a two-electrode voltage-clamp with 3 M KCl in the pipette and a bath solution containing: 96 mM NaCl, 4 mM KCl, 1 mM MgCl2, 1 mM CaCl2 and 10 mM HEPES (pH=7.6). Electrode pipettes were fabricated from 1.2 mm outer diameter thin-walled borosilicate glass (TW120F-6, World Precision Instruments Inc., Sarasota, Fla.) pulled on a Sutter puller (model P-87). Pipette tips were broken to a diameter of approximately 0.1 mm and plugged with agar made with 3 M KCl for a final resistance of 1-4 MΩ. The circuitry of the amplifier compensated for electrode series resistance (Oocyte Clamp OC-725A, Warner Instruments Inc., Hampden, Conn., USA). Leak subtraction was accomplished using a P/8 protocol from a holding potential of −120 mV. Current was filtered at 2 kHz and digitized at 10 kHz using an IBM-compatible computer, a Warner analog-digital interface (model PP-50 Lab 1), and custom acquisition software. In order to minimize difficulties associated with voltage-clamping oocytes expressing large numbers of channel proteins, whole-cell recordings were limited to oocytes expressing less than 5 μAmps of peak current.
(§2) The desired concentrations of local channel protein anesthetic drugs in ND96 were introduced to the bath by perfusion with at least 30 mL (bath volume=0.6 mL). Total bath exchange took less than 3 minutes and the drugs were allowed to equilibrate with the oocytes for a minimum of 6 minutes prior to recording.
(§3) Current-voltage relationships were produced by stepping the membrane potential from −60 to +50 mV by increments of 5 mV from a holding potential of −80 mV. A repetition frequency of 0.2 Hz was used for such voltage families. Steady-state activation curves of whole-cell currents were calculated from the current-voltage relationships by scaling the peak currents by the net driving force (i.e., V−Erev) using the equation g=I/(V−Erev) where Erev=+45 to +60 mV. Steady-state fast-inactivation curves were constructed by normalizing the current recorded in test pulses to −10 mV following 50 msec prepulses to voltages ranging from −100 to −10 mV. A repetition frequency of 0.2 Hz was used for the steady-state inactivation protocol. Recovery from inactivation was assessed using a two-pulse protocol, in which identical depolarizing voltage pulses to −20 mV for 50 msec were applied to oocytes before (conditioning) and after (test) a variable duration repolarization to −80 mV (recovery potential). The peak current evoked by the second (test) depolarization was normalized to the amplitude of the first (conditioning) depolarization and represents the fraction of channel proteins that had recovered from inactivation during the interpulse recovery period.
(§4) Preliminary studies have been performed on four prototypes of the drug illustrated in FIG. 3. Studies using these drugs were performed on three distinct types of Na^+ channel proteins: skeletal muscle Na^+ channel proteins expressed in Xenopus sp. oocytes, native heart Na^+ channel proteins in isolated rat ventricular myocytes and mutated skeletal muscle Na^+ channel proteins (i.e., Y401C) in which the naturally occurring tyrosine at position 401 was replaced with cysteine, the residue naturally found in heart. Native heart Na^+ channel proteins and Y401C channel proteins are referred to as “heart-like” Na^+ channel proteins.

[1] = target: T1, Y401C Na+ channels (mutated rat skeletal muscle sodium channel protein μ1-2) (Rattus norvegicus, UniProt P15390, Y401C); assay: Two-electrode voltage-clamp of Y401C Na+ channels expressed in Xenopus oocytes; type: cell-based
T1 construct: expressed in transfected cells; host or cells: Xenopus laevis oocytes (injected)
T1 sequence (P15390 whole entry Y401C): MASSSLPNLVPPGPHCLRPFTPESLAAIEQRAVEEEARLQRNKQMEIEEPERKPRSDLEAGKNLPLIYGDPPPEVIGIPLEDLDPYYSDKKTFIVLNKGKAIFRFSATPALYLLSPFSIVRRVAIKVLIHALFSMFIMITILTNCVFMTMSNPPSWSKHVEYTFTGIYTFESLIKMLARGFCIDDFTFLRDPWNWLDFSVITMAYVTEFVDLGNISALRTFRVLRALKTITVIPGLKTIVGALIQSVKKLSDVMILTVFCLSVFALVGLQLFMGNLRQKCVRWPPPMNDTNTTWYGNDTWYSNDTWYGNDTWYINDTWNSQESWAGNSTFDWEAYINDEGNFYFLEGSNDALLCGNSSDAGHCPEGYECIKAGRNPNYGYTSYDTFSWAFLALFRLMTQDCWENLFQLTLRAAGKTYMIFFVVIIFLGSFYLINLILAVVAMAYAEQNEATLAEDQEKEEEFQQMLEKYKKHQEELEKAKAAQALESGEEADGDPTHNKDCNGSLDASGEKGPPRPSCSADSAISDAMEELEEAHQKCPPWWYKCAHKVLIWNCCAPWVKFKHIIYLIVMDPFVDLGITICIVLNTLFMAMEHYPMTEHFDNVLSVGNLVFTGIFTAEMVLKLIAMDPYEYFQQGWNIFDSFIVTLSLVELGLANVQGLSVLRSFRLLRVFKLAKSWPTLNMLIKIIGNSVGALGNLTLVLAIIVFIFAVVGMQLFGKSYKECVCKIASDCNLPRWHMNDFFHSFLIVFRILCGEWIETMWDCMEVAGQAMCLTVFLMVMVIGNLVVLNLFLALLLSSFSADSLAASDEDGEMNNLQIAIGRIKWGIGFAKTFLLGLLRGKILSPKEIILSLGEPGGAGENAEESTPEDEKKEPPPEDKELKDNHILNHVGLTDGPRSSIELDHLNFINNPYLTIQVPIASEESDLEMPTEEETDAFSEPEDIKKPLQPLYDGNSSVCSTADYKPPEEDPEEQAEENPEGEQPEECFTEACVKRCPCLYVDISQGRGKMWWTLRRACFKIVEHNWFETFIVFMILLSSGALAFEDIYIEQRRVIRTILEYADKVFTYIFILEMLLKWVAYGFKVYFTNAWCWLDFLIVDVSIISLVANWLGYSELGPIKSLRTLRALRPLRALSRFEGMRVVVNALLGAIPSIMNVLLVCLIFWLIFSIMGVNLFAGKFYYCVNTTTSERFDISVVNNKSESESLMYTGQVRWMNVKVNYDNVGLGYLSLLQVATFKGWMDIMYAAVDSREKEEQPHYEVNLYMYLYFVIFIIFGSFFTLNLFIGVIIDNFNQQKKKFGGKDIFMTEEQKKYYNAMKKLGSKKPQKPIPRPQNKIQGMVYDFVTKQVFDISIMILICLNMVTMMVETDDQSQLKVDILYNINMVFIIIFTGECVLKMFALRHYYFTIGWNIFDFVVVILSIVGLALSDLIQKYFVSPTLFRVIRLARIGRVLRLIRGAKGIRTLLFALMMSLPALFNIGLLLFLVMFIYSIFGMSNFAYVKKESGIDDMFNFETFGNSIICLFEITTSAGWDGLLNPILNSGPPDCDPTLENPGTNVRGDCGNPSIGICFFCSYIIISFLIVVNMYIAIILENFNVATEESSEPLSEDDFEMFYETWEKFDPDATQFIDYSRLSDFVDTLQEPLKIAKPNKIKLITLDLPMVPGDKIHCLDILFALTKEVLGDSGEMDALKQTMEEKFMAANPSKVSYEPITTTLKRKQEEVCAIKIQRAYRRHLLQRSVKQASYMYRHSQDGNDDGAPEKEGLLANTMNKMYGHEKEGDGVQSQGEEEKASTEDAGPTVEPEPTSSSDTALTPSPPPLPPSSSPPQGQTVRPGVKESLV
T1 sequence (Q00954 19-218 partner): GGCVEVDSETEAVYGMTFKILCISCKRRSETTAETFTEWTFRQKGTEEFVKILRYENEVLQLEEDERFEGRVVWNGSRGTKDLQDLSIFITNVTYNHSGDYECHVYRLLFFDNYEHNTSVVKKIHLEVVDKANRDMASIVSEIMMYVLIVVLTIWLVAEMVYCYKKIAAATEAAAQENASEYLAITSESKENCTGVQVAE

HH1 Na+ channels = target: T2, HH1 Na+ channels (Homo sapiens, UniProt Q14524); assay: Two-electrode voltage-clamp of HH1 Na+ channels recorded in oocytes; type: cell-based
T2 construct: expressed in transfected cells; host or cells: Xenopus laevis oocytes (injected)
T2 sequence (Q14524 whole entry): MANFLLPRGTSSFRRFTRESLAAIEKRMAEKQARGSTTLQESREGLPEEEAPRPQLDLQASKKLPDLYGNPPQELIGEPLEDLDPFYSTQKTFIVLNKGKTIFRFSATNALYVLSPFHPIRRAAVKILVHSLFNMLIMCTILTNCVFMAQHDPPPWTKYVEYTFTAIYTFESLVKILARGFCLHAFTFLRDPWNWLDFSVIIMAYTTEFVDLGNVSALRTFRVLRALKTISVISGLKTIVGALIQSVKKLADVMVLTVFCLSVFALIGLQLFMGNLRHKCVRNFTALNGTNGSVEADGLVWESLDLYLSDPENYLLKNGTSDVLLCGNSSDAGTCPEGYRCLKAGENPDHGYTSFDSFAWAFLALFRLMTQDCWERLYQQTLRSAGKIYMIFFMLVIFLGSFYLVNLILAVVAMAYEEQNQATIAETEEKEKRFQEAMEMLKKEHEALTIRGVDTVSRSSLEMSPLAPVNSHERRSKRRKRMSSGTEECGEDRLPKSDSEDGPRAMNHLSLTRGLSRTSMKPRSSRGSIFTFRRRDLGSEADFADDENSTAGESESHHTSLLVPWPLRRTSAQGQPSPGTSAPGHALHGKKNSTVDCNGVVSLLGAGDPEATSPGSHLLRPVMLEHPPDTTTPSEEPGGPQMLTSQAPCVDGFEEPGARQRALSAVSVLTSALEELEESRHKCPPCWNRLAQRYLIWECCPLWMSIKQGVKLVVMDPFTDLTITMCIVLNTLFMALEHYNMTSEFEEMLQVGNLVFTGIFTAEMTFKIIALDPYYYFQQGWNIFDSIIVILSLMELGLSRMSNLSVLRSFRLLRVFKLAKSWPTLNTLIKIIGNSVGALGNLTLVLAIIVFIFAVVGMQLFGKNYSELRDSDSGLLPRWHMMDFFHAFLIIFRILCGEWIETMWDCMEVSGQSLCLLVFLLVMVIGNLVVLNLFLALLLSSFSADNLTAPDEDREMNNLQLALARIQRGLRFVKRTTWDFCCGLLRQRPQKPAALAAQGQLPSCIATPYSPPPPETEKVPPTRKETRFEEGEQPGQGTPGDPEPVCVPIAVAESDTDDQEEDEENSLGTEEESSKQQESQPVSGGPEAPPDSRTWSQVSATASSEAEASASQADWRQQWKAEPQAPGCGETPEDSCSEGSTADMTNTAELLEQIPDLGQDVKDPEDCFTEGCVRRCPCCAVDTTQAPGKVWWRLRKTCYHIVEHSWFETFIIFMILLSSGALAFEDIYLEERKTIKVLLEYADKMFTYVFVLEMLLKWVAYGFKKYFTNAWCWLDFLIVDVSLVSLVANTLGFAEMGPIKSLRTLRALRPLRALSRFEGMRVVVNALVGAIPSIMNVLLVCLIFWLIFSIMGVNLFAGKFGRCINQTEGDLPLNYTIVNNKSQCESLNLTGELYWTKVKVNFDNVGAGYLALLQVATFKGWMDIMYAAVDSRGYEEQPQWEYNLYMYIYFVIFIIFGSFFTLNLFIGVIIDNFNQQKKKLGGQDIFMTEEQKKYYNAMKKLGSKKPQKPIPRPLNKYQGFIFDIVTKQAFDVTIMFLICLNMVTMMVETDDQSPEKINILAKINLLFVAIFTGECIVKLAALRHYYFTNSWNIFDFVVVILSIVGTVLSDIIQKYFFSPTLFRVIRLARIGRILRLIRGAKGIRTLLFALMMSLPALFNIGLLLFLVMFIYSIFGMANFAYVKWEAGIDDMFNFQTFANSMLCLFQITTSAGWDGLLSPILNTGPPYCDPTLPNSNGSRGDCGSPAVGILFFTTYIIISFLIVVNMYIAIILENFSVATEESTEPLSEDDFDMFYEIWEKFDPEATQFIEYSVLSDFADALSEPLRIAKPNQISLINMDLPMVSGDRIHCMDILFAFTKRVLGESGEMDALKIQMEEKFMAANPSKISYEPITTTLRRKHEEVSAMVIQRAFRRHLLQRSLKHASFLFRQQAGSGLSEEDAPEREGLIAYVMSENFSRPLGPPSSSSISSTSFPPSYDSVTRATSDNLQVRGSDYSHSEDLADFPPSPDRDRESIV
Protocol: (§5) Oocytes were removed from adult female Xenopus.laevis frogs (NASCO, Fort Atkinson, Wis.; XENOPUS, Ann Arbor, Mich.) that had been anesthetized by immersion for 10-25 minutes in a 0.25% solution of tricaine (Sigma Chemical Co., St. Louis, Mo.) in tap water. A 5-fold excess of Na^+ channel protein β subunits compared to α subunits minimized the altered gating properties of Na^+ channel proteins in oocytes. Injected oocytes were incubated at 22° C. for 24-48 hr prior to recording.
as §1, §2, §3

[2] = target: T3, skeletal muscle (rSkM1) Na+ channels (Rattus norvegicus, UniProt P15390); assay: Two-electrode voltage-clamp of skeletal muscle (rSkM1) Na+ channels recorded in oocytes; type: cell-based
T3 construct: expressed in transfected cells; host or cells: Xenopus oocytes (injected)
T3 sequence (P15390 whole entry): as the sequence (P15390 whole entry Y401C) above, with C401Y counted along it
T3 sequence (Q00954 19-218 partner): as the sequence (Q00954 19-218 partner) above
Protocol: as §5
For oocyte recordings, whole-cell currents were recorded at room temperature (approximately 23° C.) using a two-electrode voltage-clamp with 3 M KCl in the pipette and a bath solution containing: 96 mM NaCl, 4 mM KCl, 1 mM MgCl2, 1 mM CaCl2 and 10 mM HEPES (pH=7.6). Electrode pipettes were fabricated from 1.2 mm outer diameter thin-walled borosilicate glass (TW120F-6, World Precision Instruments Inc., Sarasota, Fla.) pulled on a Sutter puller (model P-87). Pipette tips were broken to a diameter of approximately 0.1 mm and plugged with agar made with 3 M KCl for a final resistance of 1-4 MΩ. The circuitry of the amplifier compensated for electrode series resistance (Oocyte Clamp OC-725A, Warner Instruments Inc., Hampden, Conn., USA). […]
as §3, with “A repetition frequency of 0.2 Hz was used for such voltage families.” left out, “A repetition frequency of 0.2 Hz was used for the steady-state inactivation protocol.” left out, “The peak current evoked by the second (test) depolarization was normalized to the amplitude of the first (conditioning) depolarization and represents the fraction of channel proteins that had recovered from inactivation during the interpulse recovery period.” left out

[3] = target: T4, native heart Na+ channel proteins (Rattus norvegicus, UniProt P15389); assay: Patch-clamp recording of native heart Na+ channels in isolated rat ventricular myocytes; type: cell-based
T4 construct: native heart Na^+ channel proteins in isolated rat ventricular myocytes; endogenous in cells; host or cells: isolated rat ventricular myocytes
Protocol: Similar recording methods were used with isolated rat ventricular myocytes using the patch-clamp recording technique.
as §4

cardiac Na+ channels = assay: DTT and Cd2+ test of C2 anchoring to the pore cysteine; type: cell-based
From the text: To determine the role of the cysteine in the pore of cardiac Na^+ channel proteins, effects of C2 on Na^+ channel proteins were examined in the presence of Cd^2+ and dithiothreitol (DTT). […] Thus, it appears that C2 is linked to the Na^+ channel protein via a disulfide bond.
Cd^2+ binds with very high affinity to free sulfhydryls but not disulfide linked sulfhydryls. To determine whether the cysteines are binding to the drug, after washout of the C2 from Na^+ channel proteins channel proteins, Cd^2+ was added. […] Following DTT application, C2 modified channel proteins restore their sensitivity to Cd^2+ and this restoration occurs simultaneous with the reversal of the local anesthetic effects.

[4] = during application of 500 μM C2
[5] = repetitive depolarization to −10 mV at 10 Hz, 30 μM lidocaine
[6] = with 30 μM lidocaine, Y401C channels
[7] = with 30 μM lidocaine, HH1 channels

SMILES: CS(=O)(=O)SCCOC(=O)c1ccc(N)cc1 [Formula C2, 4-(4-aminophenyl)-4-oxo-3-oxabutyl methanethiosulfonate]
- use-dependence of Na+ channel current inhibition (Na+ channel proteins): very little use-dependent block
- recovery from inactivation (Na+ channel proteins; 100 μM to 1 mM): slowing
- steady-state inactivation curve (Na+ channel proteins; 100 μM to 1 mM): leftward shifts
- whole-cell Na+ current (Na+ channel proteins; 100 μM to 1 mM): decreases
- whole-cell Na+ current decay following channel activation (Na+ channel proteins; 100 μM to 1 mM): enhanced rates
- shift of the sensitivity of the channels to block by lidocaine (Na+ channel proteins; C2 anchoring, FIG. 9): nearly two orders of magnitude
- slow component of recovery from inactivation in modified channels (Na+ channel proteins): not observed
- melting point: 112 to 113 °C
- reversibility of effects on washout ([1]; Y401C channels): inability to wash out
- time constant for recovery from inactivation ([1]; after C2 application (washout)): 40.4 ms
- time constant for recovery from inactivation [1, 4]: 39.0 ms
- time constant for recovery from inactivation (HH1 Na+ channels; after the application of C2 (washout)): 66 ms
- time constant for recovery from inactivation (HH1 Na+ channels; [4]): 45 ms
- time constant for recovery from inactivation ([2]; after C2 washout): 13.7 ms
- time constant for recovery from inactivation ([2]; in the presence of 500 μM C2): 56.7 ms
- reversibility on washout ([2]; skeletal tissue): washed out
- reversibility of binding on washout [3]: irreversible
- reversal of the current decrease by DTT (cardiac Na+ channels; 10 mM DTT after C2 washout): completely reversed
- block of Na+ current by μM Cd2+ after washout of the agent (cardiac Na+ channels; Cd2+ added after C2 washout): no longer blocked
- change of whole-cell currents (cardiac Na+ channels; following C2 washout (FIG. 7A)): decreased
- effect of DTT on the irreversible binding after washout (cardiac Na+ channels; presence of DTT): totally inhibited

SMILES: CS(=O)(=O)SCCCCCCOC(=O)c1ccc(N)cc1 [Formula C6, 8-(4-aminophenyl)-8-oxo-7-oxaoctyl methanethiosulfonate]
- potency relative to C2 (Na+ channel proteins): far more potent than C2
- melting point: 85 to 86 °C

SMILES: CS(=O)(=O)SCCCCCCCCCCOC(=O)c1ccc(N)cc1 [Formula C10, 12-(4-aminophenyl)-12-oxo-11-oxadodecyl methanethiosulfonate]
- melting point: 73 to 74 °C

SMILES: Cc1cccc(C)c1NC(=O)CNCCSS(C)(=O)=O [Formula T2, 1-(2,6-dimethylphenyl)-2,8,8-trioxo-1,4-diaza-7,8-dithianonane]
- use-dependence of Na+ channel current inhibition (Na+ channel proteins): use-dependent

SMILES: CCOC(=O)c1ccc(N)cc1 [benzocaine, reference compound]
- slow component of recovery from inactivation in modified channels (Na+ channel proteins): not observed

SMILES: CCN(CC)CC(=O)Nc1c(C)cccc1C [lidocaine, reference compound]
- use-dependent block [1, 5]: use-dependent block
- tfast, first rapid phase of recovery from inactivation [1, 6]: 5.0 ms
- tslow, second slow component of recovery from inactivation [1, 6]: 365 ms
- use-dependent block (HH1 Na+ channels; [5]): use-dependent block
- tfast, first rapid phase of recovery from inactivation (HH1 Na+ channels; [7]): 16.11 ms
- tslow, second slow component of recovery from inactivation (HH1 Na+ channels; [7]): 763 ms
